Results from patent US5736394A, “Cellular uptake of modified peptides” (Boston Biomedical Research Institute, priority 1996, dated 1998).
Where no end group is shown, it is not given here. The star is where a group is joined. Benzoyl(4-benzoyl) = O=C(c1ccccc1)c1ccc(C(=O)*)cc1

Experiments:
[1] = test system: HL60 cells; experiment: Inhibition of HL60 cell proliferation ([3H]TdR incorporation at 24 h) after photolysis of intracellular Bz-peptide at 365 nm; assay type: cell-based, human; settings: for cytostatic response / inhibition of DNA synthesis: irradiation immediately after plating, FIG. 2A
Description: Experiments were designed to determine whether, after admission of the target-specific Bz-peptide molecules into proliferating cells, their photolysis in situ would induce a cytostatic response. Such a response would implicate the irreversible inhibition of ras-prenylating enzymes. […] It is important to note that, regardless of treatment, Trypan blue-assessed viability remained above 90% under the conditions employed for all experiments shown in FIG. 2A,B.
Two fundamental variations were performed. For FIG. 2A, cells were incubated in serum-free medium in the presence of a Bz-peptide, mevinolin, or, as control, with the DMSO delivery vehicle alone, for 15 min at room temp., after which fetal bovine serum was added to 10% (v/v) followed by plating in triplicate at 0.5 mL/well. These plates were immediately irradiated at 365 nm for 15 min to excite the intracellular Bz photophore, then placed in the incubator at 37° C. for 24 h. For FIG. 2B, the same procedure was followed except that, after serum replenishment and plating, cells were first incubated at 37° C. for 1 h, then removed from the incubator, irradiated for 15 min, and returned to incubation for 24 h. The 1 h incubation prior to irradiation was performed to assess, indirectly, the potential for intracellular destruction (or other means of depletion) of the Bz-peptides. At 24 h after serum replenishment, all cells were pulse-labeled with [^3 H]TdR to record the effect of intracellular Bz-peptide photolysis (as well as of mevinolin treatment, the effects of which have been well documented) on DNA synthesis and, thereby, on cell proliferation.

[2] = test system: HL60 cells; experiment: HL60 cell proliferation ([3H]TdR incorporation into DNA) after 18 h incubation, plus or minus irradiation; assay type: cell-based, human
Method: A set of experiments were designed to assess the effects of Bz-peptides on ras-mediated signaling of cell proliferation, under conditions where incubations of cells, post peptide addition, were shorter (18 h) than that found optimal for their population doubling (~24 h). Experiments were intended to reveal early differences in the relative stability of the Bz-peptides, as judged by their effects on inhibition of cell proliferation, plus or minus irradiation.
HL60 cells were exposed to Bz-ACVIM SEQ ID NO: 4 (FPTase-specific), Bz-ACVIL SEQ ID NO: 5 (GGPTase-I-specific), the benzophenone photophore (BBA), mevinolin (proliferation inhibition control), or the DMSO vehicle alone, plus or minus irradiation. After incubation for 18 h at 37° C., irradiated and non-irradiated cultures were assayed for [^3 H]TdR incorporation into DNA (a measure of proliferation).

[3] = test system: HL-60 cells; experiment: Cellular uptake of [3H]Bz-peptides / [3H]BBA by HL60 cells (silicone oil centrifugation, cell pellets counted)
Method: Initial experiments were designed to determine whether the Bz-modified peptide could cross cellular membranes. The methods employed for these studies are given briefly. First, 2×10^6 HL-60 cells/mL were incubated in serum free medium at 37° C. together with either [^3 H]-benzoylbenzoic acid ([^3 H]BBA) or the [^3 H]Bz-peptideover a 45 min time course. Aliquots (0.5 mL) of the cell suspension were removed at the times shown and separated from the aqueous medium by centrifugation through a silicone oil barrier. The cell pellets in the oil layer were counted.
The volume of an average HL60 cell can be estimated as 4.2×10^-6 μL. Thus, the pellet volume occupied by a […] suspension of 10^6 cells is […].

[4] = 10 μM, 1 h delay at 37° C. before photolysis, 24 h, FIG. 2B

mevinolin [reference compound]
growth inhibition ([1]; 10 μM, FIGS. 2A & 2B, whether irradiation was delayed for 1 h or not): apparent | relative extent of inhibition of cell proliferation ([2]; whether or not cells were irradiated, 2nd bar both panels): ~ 50%

APRTPGGRR
intracellular accumulation ([3]; 48 μM, HL60 cells, lowest trace in FIG. 1B): no evidence for intracellular accumulation

Bz-ACVIL: Bz-derivatized pentapeptide ACVIL; GGPTase-I-specific photoaffinity inhibitor ({Benzoyl(4-benzoyl)}-ACVIL)
influx and equilibration into cells [3]: behaved similarly | inhibitory effect [1, 4]: ineffective | cytostatic response ([1]; 10 μM, 24 h): did not do so | loss of the inhibitory capacity manifest in FIG. 2A ([1]; 100 μM, 1 h delay before photolysis, FIG. 2B relative to FIG. 2A): about 60% | cytostatic response ([1]; 100 μM, 24 h): clear cytostatic response

Bz-ACVIM: Bz-derivatized pentapeptide; benzophenone moiety amide-coupled to the N-terminus of ACVIM; FPTase-specific photoaffinity inhibitor ({Benzoyl(4-benzoyl)}-ACVIM)
influx and equilibration into cells [3]: extremely rapid | time to reach maximum levels of influx and equilibration [3]: ≤ 15 min | inhibitory effect [1, 4]: much lower inhibitory effect | inhibition of DNA synthesis ([1]; 10 μM, 24 h): 75-80% | cytostatic effect ([1]; 100 μM, 1 h delay at 37° C. before photolysis, 24 h, FIG. 2B): remained at least as powerful as in FIG. 2A | inhibition of DNA synthesis ([1]; 100 μM, 24 h): 75-80%

O=C(O)c1ccc(C(=O)c2ccccc2)cc1 [BBA, 4-benzoylbenzoic acid]
effect on the cell's capacity for proliferation ([2]; whether cells were irradiated or not, 6th bar both panels): no effect
